Tests used:
Type in all cases: in vivo
[1] = tested on: barnyardgrass (Echinochloa crus-galli); assay: Test A preemergence, barnyardgrass; conditions: 0 to 100 scale (0 no effect, 100 complete control)
How it was run: (§1)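 Greenhouse test: compounds in solvent with surfactant sprayed onto loam–sand soil after planting (preemergence) or onto plants 2-10 cm at the one- to two-leaf stage (postemergence). Injury visually rated versus untreated controls after about 10 days on a 0-100 scale (100 = complete control).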

[2] = tested on: kochia (Kochia scoparia); assay: Test A preemergence, kochia; conditions: 0 to 100 scale (0 no effect, 100 complete control)
How it was run: as §1

[3] = tested on: ragweed (common ragweed, Ambrosia elatior); assay: Test A preemergence, ragweed; conditions: 0 to 100 scale (0 no effect, 100 complete control)
How it was run: as §1

[4] = tested on: ryegrass, Italian (Lolium multiflorum); assay: Test A preemergence, Italian ryegrass; conditions: 0 to 100 scale (0 no effect, 100 complete control)
How it was run: as §1

[5] = tested on: foxtail, giant (Setaria faberii); assay: Test A preemergence, giant foxtail; conditions: 0 to 100 scale (0 no effect, 100 complete control)
How it was run: as §1

[6] = tested on: pigweed (Amaranthus retroflexus); assay: Test A preemergence, pigweed; conditions: 0 to 100 scale (0 no effect, 100 complete control)
How it was run: as §1

[7] = tested on: barnyardgrass (Echinochloa crus-galli); assay: Test A postemergence, barnyardgrass; conditions: visual injury, 0 to 100 scale (0 no effect, 100 complete control), approximately 10 days
How it was run: as §1

[8] = tested on: kochia (Kochia scoparia); assay: Test A postemergence, kochia; conditions: visual injury, 0 to 100 scale (0 no effect, 100 complete control), approximately 10 days
How it was run: as §1

[9] = tested on: ragweed (common ragweed, Ambrosia elatior); assay: Test A postemergence, ragweed; conditions: visual injury, 0 to 100 scale (0 no effect, 100 complete control), approximately 10 days
How it was run: as §1

[10] = tested on: ryegrass, Italian (Lolium multiflorum); assay: Test A postemergence, Italian ryegrass; conditions: visual injury, 0 to 100 scale (0 no effect, 100 complete control), approximately 10 days
How it was run: as §1

[11] = tested on: foxtail, giant (Setaria faberii); assay: Test A postemergence, giant foxtail; conditions: visual injury, 0 to 100 scale (0 no effect, 100 complete control), approximately 10 days
How it was run: as §1

[12] = tested on: pigweed (Amaranthus retroflexus); assay: Test A postemergence, pigweed; conditions: visual injury, 0 to 100 scale (0 no effect, 100 complete control), approximately 10 days
How it was run: as §1

[13] = tested on: blackgrass (Alopecurus myosuroides); assay: Test A postemergence, blackgrass; conditions: visual injury, 0 to 100 scale (0 no effect, 100 complete control), approximately 10 days
How it was run: as §1

[14] = tested on: galium (catchweed bedstraw, Galium aparine); assay: Test A postemergence, galium; conditions: visual injury, 0 to 100 scale (0 no effect, 100 complete control), approximately 10 days
How it was run: as §1

[15] = tested on: wheat (Triticum aestivum); assay: Test A postemergence, wheat; conditions: visual injury, 0 to 100 scale (0 no effect, 100 complete control), approximately 10 days
How it was run: as §1

[16] = tested on: corn (Zea mays); assay: Test A postemergence, corn; conditions: visual injury, 0 to 100 scale (0 no effect, 100 complete control), approximately 10 days
How it was run: as §1

[17] = tested on: rice (Oryza sativa); assay: Test B flooded paddy test, rice; conditions: 250 g ai/ha, applied to paddy water, visual rating after 13 to 15 days, scale 0 (no effect) to 100 (complete control)
How it was run: (§2)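 Visual injury ratings against untreated controls, taken 13 to 15 days after compound was added to paddy water standing 3 cm above the soil.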

[18] = tested on: sedge, umbrella (small-flower umbrella sedge, Cyperus difformis); assay: Test B flooded paddy test, umbrella sedge; conditions: 250 g ai/ha, applied to paddy water, visual rating after 13 to 15 days, scale 0 (no effect) to 100 (complete control)
How it was run: as §2

[19] = tested on: ducksalad (Heteranthera limosa); assay: Test B flooded paddy test, ducksalad; conditions: 250 g ai/ha, applied to paddy water, visual rating after 13 to 15 days, scale 0 (no effect) to 100 (complete control)
How it was run: as §2

[20] = tested on: barnyardgrass (Echinochloa crus-galli); assay: Test B flooded paddy test, barnyardgrass; conditions: 250 g ai/ha, applied to paddy water, visual rating after 13 to 15 days, scale 0 (no effect) to 100 (complete control)
How it was run: as §2

Row | SMILES | Plant response rating, Barnyardgrass ([1]; 125 g ai/ha) | Plant response rating, Barnyardgrass ([1]; 500 g ai/ha) | Plant response rating, Kochia ([2]; 125 g ai/ha) | Plant response rating, Kochia ([2]; 500 g ai/ha) | Plant response rating, Ragweed ([3]; 125 g ai/ha) | Plant response rating, Ragweed ([3]; 500 g ai/ha) | Plant response rating, Ryegrass, Italian ([4]; 125 g ai/ha) | Plant response rating, Ryegrass, Italian ([4]; 500 g ai/ha) | Plant response rating, Foxtail, Giant ([5]; 125 g ai/ha) | Plant response rating, Foxtail, Giant ([5]; 500 g ai/ha) | Plant response rating, Pigweed ([6]; 125 g ai/ha) | Plant response rating, Pigweed ([6]; 500 g ai/ha) | Plant response rating, Barnyardgrass ([7]; 125 g ai/ha) | Plant response rating, Barnyardgrass ([7]; 500 g ai/ha) | Plant response rating, Kochia ([8]; 125 g ai/ha) | Plant response rating, Kochia ([8]; 500 g ai/ha) | Plant response rating, Ragweed ([9]; 125 g ai/ha) | Plant response rating, Ragweed ([9]; 500 g ai/ha) | Plant response rating, Ryegrass, Italian ([10]; 125 g ai/ha) | Plant response rating, Ryegrass, Italian ([10]; 500 g ai/ha) | also measured
1 | O=C1NCC(c2cccc(OCc3ccco3)c2)C1C(=O)Nc1ccccc1Cl (stereo not drawn) [Compound 1] | 0 | 0 | 0 | 0 | 0 | 0 | 0 | 0 | 0 | 0 | 0 | 0 | 0 | 0 | 0 | 0 | 0 | 30 | 0 | 0 | Plant response rating, Foxtail, Giant ([11]; 125 g ai/ha): 0; Plant response rating, Foxtail, Giant ([11]; 500 g ai/ha): 0; Plant response rating, Pigweed ([12]; 125 g ai/ha): 0; Plant response rating, Pigweed ([12]; 500 g ai/ha): 0; Plant response rating, Blackgrass ([13]; 125 g ai/ha): 0; Plant response rating, Blackgrass ([13]; 500 g ai/ha): 0; Plant response rating, Galium ([14]; 125 g ai/ha): 0; Plant response rating, Galium ([14]; 500 g ai/ha): 0; Plant response rating, Wheat ([15]; 125 g ai/ha): 0; Plant response rating, Wheat ([15]; 500 g ai/ha): 0; Plant response rating, Corn ([16]; 125 g ai/ha): 0; Plant response rating, Corn ([16]; 500 g ai/ha): 0; Plant response rating, Rice (Flood) [17]: 0; Plant response rating, Sedge, Umbrella (Flood) [18]: 30; Plant response rating, Ducksalad (Flood) [19]: 65; Plant response rating, Barnyardgrass (Flood) [20]: 0
2 | O=C1NCC(c2cccc(OCc3ccco3)c2)C1C(=O)Nc1ccccc1C(F)(F)F (stereo not drawn) [Compound 2] | 0 | 30 | 0 | 0 | 0 | 0 | 0 | 0 | 0 | 20 | 0 | 0 | 0 | 0 | 0 | 0 | 0 | 0 | 0 | 10 | Plant response rating, Foxtail, Giant ([11]; 125 g ai/ha): 0; Plant response rating, Foxtail, Giant ([11]; 500 g ai/ha): 10; Plant response rating, Pigweed ([12]; 125 g ai/ha): 0; Plant response rating, Pigweed ([12]; 500 g ai/ha): 0; Plant response rating, Blackgrass ([13]; 125 g ai/ha): 0; Plant response rating, Blackgrass ([13]; 500 g ai/ha): 0; Plant response rating, Galium ([14]; 125 g ai/ha): 0; Plant response rating, Galium ([14]; 500 g ai/ha): 0; Plant response rating, Wheat ([15]; 125 g ai/ha): 0; Plant response rating, Wheat ([15]; 500 g ai/ha): 0; Plant response rating, Corn ([16]; 125 g ai/ha): 0; Plant response rating, Corn ([16]; 500 g ai/ha): 0; Plant response rating, Rice (Flood) [17]: 0; Plant response rating, Sedge, Umbrella (Flood) [18]: 0; Plant response rating, Ducksalad (Flood) [19]: 0; Plant response rating, Barnyardgrass (Flood) [20]: 0
3 | O=C1NCC(c2cccc(OCC3CC3)c2)C1C(=O)Nc1ccccc1Cl (stereo not drawn) [Compound 4] | 60 | 90 | 0 | 30 | 0 | 0 | 0 | 20 | 70 | 90 | 0 | 20 | 40 | 80 | 0 | 0 | 0 | 40 | 0 | 40 | Plant response rating, Foxtail, Giant ([11]; 125 g ai/ha): 40; Plant response rating, Foxtail, Giant ([11]; 500 g ai/ha): 80; Plant response rating, Pigweed ([12]; 125 g ai/ha): 0; Plant response rating, Pigweed ([12]; 500 g ai/ha): 30; Plant response rating, Blackgrass ([13]; 125 g ai/ha): 0; Plant response rating, Blackgrass ([13]; 500 g ai/ha): 40; Plant response rating, Galium ([14]; 125 g ai/ha): 0; Plant response rating, Galium ([14]; 500 g ai/ha): 0; Plant response rating, Wheat ([15]; 125 g ai/ha): 0; Plant response rating, Wheat ([15]; 500 g ai/ha): 0; Plant response rating, Corn ([16]; 125 g ai/ha): 0; Plant response rating, Corn ([16]; 500 g ai/ha): 0; Plant response rating, Rice (Flood) [17]: 0; Plant response rating, Sedge, Umbrella (Flood) [18]: 0; Plant response rating, Ducksalad (Flood) [19]: 0; Plant response rating, Barnyardgrass (Flood) [20]: 0
4 | O=C1NCC(c2cccc(OCC3OCCO3)c2)C1C(=O)Nc1ccccc1C(F)(F)F (stereo not drawn) [Compound 5] | 0 | 50 | 0 | 0 | 0 | 0 | 0 | 0 | 30 | 90 | 0 | 30 | 0 | 20 | 0 | 0 | 0 | 0 | 20 | 20 | Plant response rating, Foxtail, Giant ([11]; 125 g ai/ha): 20; Plant response rating, Foxtail, Giant ([11]; 500 g ai/ha): 50; Plant response rating, Pigweed ([12]; 125 g ai/ha): 0; Plant response rating, Pigweed ([12]; 500 g ai/ha): 0; Plant response rating, Blackgrass ([13]; 125 g ai/ha): 0; Plant response rating, Blackgrass ([13]; 500 g ai/ha): 0; Plant response rating, Galium ([14]; 125 g ai/ha): 0; Plant response rating, Galium ([14]; 500 g ai/ha): 0; Plant response rating, Wheat ([15]; 125 g ai/ha): 0; Plant response rating, Wheat ([15]; 500 g ai/ha): 0; Plant response rating, Corn ([16]; 125 g ai/ha): 0; Plant response rating, Corn ([16]; 500 g ai/ha): 0; Plant response rating, Rice (Flood) [17]: 0; Plant response rating, Sedge, Umbrella (Flood) [18]: 0; Plant response rating, Ducksalad (Flood) [19]: 65; Plant response rating, Barnyardgrass (Flood) [20]: 0
5 | O=C1NCC(c2cccc(OCC3OCCO3)c2)C1C(=O)Nc1ccccc1Cl (stereo not drawn) [Compound 6] | 20 | 80 | 0 | 0 | 0 | 20 | 0 | 0 | 70 | 90 | 60 | 50 | 0 | 70 | 0 | 0 | 0 | 0 | 0 | 0 | Plant response rating, Foxtail, Giant ([11]; 125 g ai/ha): 0; Plant response rating, Foxtail, Giant ([11]; 500 g ai/ha): 70; Plant response rating, Pigweed ([12]; 125 g ai/ha): 0; Plant response rating, Pigweed ([12]; 500 g ai/ha): 0; Plant response rating, Blackgrass ([13]; 125 g ai/ha): 0; Plant response rating, Blackgrass ([13]; 500 g ai/ha): 20; Plant response rating, Galium ([14]; 125 g ai/ha): 0; Plant response rating, Galium ([14]; 500 g ai/ha): 0; Plant response rating, Wheat ([15]; 125 g ai/ha): 0; Plant response rating, Wheat ([15]; 500 g ai/ha): 20; Plant response rating, Corn ([16]; 125 g ai/ha): 0; Plant response rating, Corn ([16]; 500 g ai/ha): 20; Plant response rating, Rice (Flood) [17]: 0; Plant response rating, Sedge, Umbrella (Flood) [18]: 0; Plant response rating, Ducksalad (Flood) [19]: 0; Plant response rating, Barnyardgrass (Flood) [20]: 0
